From US10576062B2, “Carbamoyloxymethyl triazole cyclohexyl acids as LPA antagonists” (Bristol-Myers Squibb Company, priority 2016, dated 2020)

Biological target: T1, human LPA1 (Homo sapiens, UniProt Q92633)
T1 construct: expressed in transfected cells; host or cells: Chinese hamster ovary (CHO) cells
Assay: LPA1 functional antagonist assay (LPA-induced calcium flux)
Type: cell-based
Conditions: CHO cells overexpressing human LPA1; inhibition of calcium flux induced by 10 nM LPA; read-out: hLPA1 IC50
Description: The effectiveness of compounds of the present invention as LPA1 inhibitors can be determined in an LPA1 functional antagonist assay as follows: Chinese hamster ovary cells overexpressing human LPA1 were plated overnight (15,000 cells/well) in poly-D-lysine coated 384-well microplates (Greiner bio-one, Cat #781946) in DMEM/F12 medium (Gibco, Cat #11039). Following overnight culture, cells were loaded with calcium indicator dye (AAT Bioquest Inc, Cat #34601) for 30 minutes at 37° C. The cells were then equilibrated to room temperature for 30 minutes before the assay. Test compounds solubilized in DMSO were transferred to 384 well non-binding surface plates (Corning, Cat #3575) using the Labcyte Echo acoustic dispense and diluted with assay buffer [1×HBSS with calcium/magnesium (Gibco Cat #14025-092), 20 mM HEPES (Gibco Cat #15630-080) and 0.1% fatty acid free BSA (Sigma Cat #A9205)] to a final concentration of 0.5% DMSO. Diluted compounds were added to the cells by FDSS6000 (Hamamatsu) at final concentrations ranging from 0.08 nM to 5 μM. and were then incubated for 20 min at room temperature at which time LPA (Avanti Polar Lipids Cat #857130C) was added at final concentrations of 10 nM to stimulate the cells. […] IC50 values were determined by fitting data to a 4-parameter logistic equation (GraphPad Prism, San Diego Calif.).

T1 sequence (Q92633 whole entry): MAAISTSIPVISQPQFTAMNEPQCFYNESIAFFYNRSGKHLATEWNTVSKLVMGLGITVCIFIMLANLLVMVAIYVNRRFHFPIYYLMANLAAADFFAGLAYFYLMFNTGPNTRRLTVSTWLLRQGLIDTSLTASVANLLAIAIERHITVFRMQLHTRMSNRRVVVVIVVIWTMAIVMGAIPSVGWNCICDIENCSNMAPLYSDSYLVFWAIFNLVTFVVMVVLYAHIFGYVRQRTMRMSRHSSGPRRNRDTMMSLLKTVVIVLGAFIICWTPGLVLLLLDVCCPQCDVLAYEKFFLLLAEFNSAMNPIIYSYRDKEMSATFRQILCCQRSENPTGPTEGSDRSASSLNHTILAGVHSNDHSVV

IC50 | Structure (SMILES)
28 nM | CCCN(C)C(=O)OCc1c(-c2ccc(O[C@H]3CCC[C@H](C(=O)O)C3)c(C(F)(F)F)n2)nnn1C [Example 274, (1S,3S)-3-((6-(1-methyl-5-(((methyl(propyl)carbamoyl)oxy)methyl)-1H-1,2,3-triazol-4-yl)-2-(trifluoromethyl)pyridin-3-yl)oxy)cyclohexane-1-carboxylic acid]
132 nM | CCC(F)CN(C)C(=O)OCc1c(-c2cnc(O[C@H]3CCC[C@H](C(=O)O)C3)c(C)n2)nnn1C (mixture of isomers) [Example 254, (1S,3S)-3-((5-(5-((((2-fluorobutyl)(methyl)carbamoyl)oxy)methyl)-1-methyl-1H-1,2,3-triazol-4-yl)-3-methylpyrazin-2-yl)oxy)cyclohexane-1-carboxylic acid]
92 nM | COCc1nc(-c2nnn(C)c2COC(=O)N(C)C2CCC2)ccc1O[C@H]1CCC[C@H](C(=O)O)C1 [Example 286, (1S,3S)-3-((6-(5-(((cyclobutyl(methyl)carbamoyl)oxy)methyl)-1-methyl-1H-1,2,3-triazol-4-yl)-2-(methoxymethyl)pyridin-3-yl)oxy)cyclohexane-1-carboxylic acid]
144 nM | Cc1nc(-c2nnn(C)c2CCOC(=O)NCC2CCC2)ccc1O[C@H]1CCC[C@H](C(=O)O)C1 [Example 248, (1S,3S)-3-((6-(5-(2-(((Cyclobutyl-methyl)carbamoyl)oxy)ethyl)-1-methyl-1H-1,2,3-triazol-4-yl)-2-methylpyridin-3-yl)oxy)cyclohexane-1-carboxylic acid]
54 nM | Cc1nc(-c2nnn(C)c2CCOC(=O)N(C)Cc2ccccc2)ccc1O[C@H]1CCC[C@H](C(=O)O)C1 [Example 244, (1S,3S)-3-((6-(5-(2-((Benzyl(methyl)-carbamoyl)oxy)ethyl)-1-methyl-1H-1,2,3-triazol-4-yl)-2-methylpyridin-3-yl)oxy)cyclohexane-1-carboxylic acid]
50 nM | Cc1nc(-c2nnn(C)c2COC(=O)N(C)CCC(C)F)ccc1O[C@H]1CCC[C@H](C(=O)O)C1 (stereo partly drawn) [Example 260, (1S,3 S)-3-((6-(5-((((3-fluorobutyl)(methyl)carbamoyl)oxy)methyl)-1-methyl-1H-1,2,3-triazol-4-yl)-2-methylpyridin-3-yl)oxy)cyclohexane-1-carboxylic Acid]
22 nM | CN(C(=O)OCc1c(-c2ccc(O[C@H]3CCC[C@H](C(=O)O)C3)c(C(F)F)n2)nnn1C)C1CCC1 [Example 280, (1S,3S)-3-((6-(5-(((cyclobutyl(methyl)carbamoyl)oxy)methyl)-1-methyl-1H-1,2,3-triazol-4-yl)-2-(difluoromethyl)pyridin-3-yl)oxy)cyclohexane-1-carboxylic acid]
15 nM | CCCCN(C)C(=O)OCc1c(-c2ccc(O[C@H]3CCC[C@H](C(=O)O)C3)c(C#N)n2)nnn1C [Example 291, (1S,3S)-3-((6-(5-(((butyl(methyl)carbamoyl)oxy)methyl)-1-methyl-1H-1,2,3-triazol-4-yl)-2-cyanopyridin-3-yl)oxy)cyclohexane-1-carboxylic acid]
15 nM | CN(C(=O)OCc1c(-c2ccc(O[C@H]3CCC[C@H](C(=O)O)C3)c(C#N)n2)nnn1C)C1CCCC1 [Example 294, (1S,3S)-3-((2-cyano-6-(5-(((cyclopentyl(methyl)carbamoyl)oxy)methyl)-1-methyl-1H-1,2,3-triazol-4-yl)pyridin-3-yl)oxy)cyclohexane-1-carboxylic acid]
11 nM | CCc1nc(-c2nnn(C)c2COC(=O)N(C)C2CCCC2)ccc1O[C@H]1CCC[C@H](C(=O)O)C1 [Example 195, (1S,3S)-3-((6-(5-(((cyclopentyl(methyl)carbamoyl)oxy)methyl)-1-methyl-1H-1,2,3-triazol-4-yl)-2-ethylpyridin-3-yl)oxy)cyclohexane-1-carboxylic acid]

Same assay, conditions: human LPA1; read-out: hLPA1 IC50

Structure (SMILES) | IC50
Cc1nc(-c2nnn(C)c2COC(=O)N2C3CCC2CC3)ccc1O[C@H]1CCC[C@H](C(=O)O)C1 [Example 167, (1S,3S)-3-((6-(5-(((-7-azabicyclo[2.2.1]heptane-7-carbonyl)oxy)methyl)-1-methyl-1H-1,2,3-triazol-4-yl)-2-methylpyridin-3-yl)oxy)cyclohexane-1-carboxylic acid] | 317 nM
CN(C(=O)OCc1c(-c2ccc(O[C@H]3CCC[C@H](C(=O)O)C3)cn2)nnn1C)C1CC2(CCC2)C1 [Example 180, (1S,3S)-3-((6-(1-methyl-5-(((methyl(spiro[3.3]heptan-2-yl)carbamoyl)oxy)methyl)-1H-1,2,3-triazol-4-yl)pyridin-3-yl)oxy)cyclohexane-1-carboxylic acid] | 62 nM
Cc1nc(-c2nnn(C)c2COC(=O)N(C)CC2CC2(C)C)ccc1O[C@H]1CCC[C@H](C(=O)O)C1 (mixture of isomers) [Example 184, (1S,3S)-3-((6-(5-(((((2,2-dimethylcyclopropyl)methyl)(methyl)carbamoyl)oxy)methyl)-1-methyl-1H-1,2,3-triazol-4-yl)-2-methylpyridin-3-yl)oxy)cyclohexane-1-carboxylic acid] | 37 nM
Cc1nc(-c2nnn(C)c2COC(=O)N2CCC(C(C)C)C2)ccc1O[C@H]1CCC[C@H](C(=O)O)C1 (mixture of isomers) [Example 163, (1S,3S)-3-((6-(5-(((3-isopropylpyrrolidine-1-carbonyl)oxy)methyl)-1-methyl-1H-1,2,3-triazol-4-yl)-2-methylpyridin-3-yl)oxy)cyclohexane-1-carboxylic acid] | 104 nM

Second part, the molecule after the results:

IC50 | Structure (SMILES)
32 nM | CN(CCC(C)(C)F)C(=O)OCc1c(-c2ccc(O[C@H]3CCC[C@H](C(=O)O)C3)cn2)nnn1C [Example 188, (1S,3S)-3-((6-(5-((((3-fluoro-3-methylbutyl)(methyl)carbamoyl)oxy)methyl)-1-methyl-1H-1,2,3-triazol-4-yl)pyridin-3-yl)oxy)cyclohexane-1-carboxylic acid]
81 nM | Cc1nc(-c2nnn(C)c2COC(=O)N(C)CCCF)ccc1O[C@H]1CCC[C@H](C(=O)O)C1 [Example 190, (1S,3S)-3-((6-(5-((((3-fluoropropyl)(methyl)carbamoyl)oxy)methyl)-1-methyl-1H-1,2,3-triazol-4-yl)-2-methylpyridin-3-yl)oxy)cyclohexane-1-carboxylic acid]

Same assay, conditions: read-out: hLPA1 IC50

IC50 | Structure (SMILES)
529 nM | Cc1nc(-c2nnn(C)c2COC(=O)N2CCC2C)ccc1O[C@H]1CCC[C@H](C(=O)O)C1 (mixture of isomers) [Example 157, (1S,3S)-3-((2-methyl-6-(1-methyl-5-(((2-methylazetidine-1-carbonyl)oxy)methyl)-1H-1,2,3-triazol-4-yl)pyridine-3-yl)oxy)cyclohexane-1-carboxylic acid]
873 nM | Cc1nc(-c2nnn(C)c2COC(=O)N(C)Cc2ccncc2)ccc1O[C@H]1CCC[C@H](C(=O)O)C1 [Example 122, (1S,3S)-3-((2-methyl-6-(1-methyl-5-(((methyl(pyridin-4-ylmethyl)carbamoyl)oxy)methyl)-1H-1,2,3-triazol-4-yl)pyridin-3-yl)oxy)cyclohexane-1-carboxylic acid]
58 nM | Cc1nc(-c2nnn(C)c2COC(=O)N(C)C2(C)CC2)ccc1O[C@H]1CCC[C@H](C(=O)O)C1 [Example 85, (1S,3S)-3-((2-methyl-6-(1-methyl-5-(((methyl(1-methylcyclopropyl)carbamoyl)oxy)methyl)-1H-1,2,3-triazol-4-yl)pyridin-3-yl)oxy)cyclohexane-1-carboxylic acid]
8 nM | CC(C1CCC1)N(C)C(=O)OCc1c(-c2ccc(O[C@H]3CCC[C@H](C(=O)O)C3)cc2)nnn1C (single isomer, unassigned) [Example 48]
91 nM | Cc1nc(-c2nnn(C)c2COC(=O)N2CCC(CC3CC3)C2)ccc1O[C@H]1CCC[C@H](C(=O)O)C1 (mixture of isomers) [Example 150, (1S,3S)-3-((6-(5-(((3-(cyclopropylmethyl)pyrrolidine-1-carbonyl)oxy)methyl)-1-methyl-1H-1,2,3-triazol-4-yl)-2-methylpyridin-3-yl)oxy)cyclohexane-1-carboxylic acid]
1090 nM | Cc1nc(-c2nnn(C)c2COC(=O)N(C)Cc2ncccn2)ccc1O[C@H]1CCC[C@H](C(=O)O)C1 [Example 121, (1S,3S)-3-((2-methyl-6-(1-methyl-5-(((methyl(pyrimidin-2-ylmethyl)carbamoyl)oxy)methyl)-1H-1,2,3-triazol-4-yl)pyridin-3-yl)oxy)cyclohexane-1-carboxylic acid]
62 nM | CN(C(=O)OCc1c(-c2ccc(O[C@H]3CCC[C@H](C(=O)O)C3)cc2)nnn1C)C1CCC1 [Example 73, (1S,3S)-3-(4-(5-(((cyclobutyl(methyl)carbamoyl)oxy)methyl)-1-methyl-1H-1,2,3-triazol-4-yl)phenoxy)cyclohexane-1-carboxylic acid]
98 nM | Cc1nc(-c2nnn(C)c2COC(=O)N(C)C(C)C)ccc1O[C@H]1CCC[C@H](C(=O)O)C1 [Example 138]
1820 nM | Cc1nc(-c2nnn(C)c2COC(=O)N(C)C2CC23CCC3)ccc1O[C@H]1CCC[C@@H](C(=O)O)C1 (stereo partly drawn) [Example 146, (1R,3S)-3-((2-methyl-6-(1-methyl-5-(((methyl(spiro[2.3]hexan-1-yl)carbamoyl)oxy)methyl)-1H-1,2,3-triazol-4-yl)pyridin-3-yl)oxy)cyclohexane-1-carboxylic acid]
